Measurements from article PMC6274350, “Design, Synthesis, and Cytotoxicity of 5-Fluoro-2-methyl-6-(4-aryl-piperazin-1-yl) Benzoxazoles” (Molecules, 2016).

What was measured:
[1] = system: A-549 lung carcinoma cells; assay: CellTiter-Glo luminescent cell viability (cytotoxicity) assay on lung cancer cells; format: cell-based, human; conditions: for viability at 0.1 µM / viability at 1 µM / viability at 10 µM / viability at 50 µM / viability at 100 µM: Homo sapiens, A549, Lung cancer cells (A-549), 24 h, vs DMSO vehicle; for Lung cancer cells killed: A-549; for viability at 10 µM / Lung cancer cells killed: 10 µM
Description: (§1) The cytotoxicity of prepared benzoxazoles (7a–j) and intermediates (6a–j and 9) were measured by applying the CellTiter-Glo® luminescent cell proliferation assay (G755A, Promega, Madison, WI, USA). This method permits the determination of viable cells numbers in the culture based on quantitation of the ATP present, which denotes the presence of metabolically active cells. In vitro cytotoxicity analysis was overall performed following the protocol as described in “Guidance Document on Using in Vitro Data to Estimate in Vivo Starting Doses for Acute Toxicity Based on Recommendations” [18]. Human A-549 cells are human lung cancer epithelial cells, which were chosen as the tumor model, whereas the HepaRG™ cell line is a classic hepatic cell line that retains many characteristics of primary human hepatocytes. HepaRG™ cells are terminally differentiated.
(§2) Human cell cultures: Hepatocytes (HepaRG^TM cells) were obtained from Life Technologies, and were cultivated in William’s E Medium (Gibco, Life Technologies, Waltham, MA, USA) and supplemented with 1x GlutaMAX™ plus 1x HepaRG^TM General Purpose Medium Supplement in 25-cm^2 or 75-cm^2 flasks (TPP, Trasadingen, Switzerland) at 37 °C and 5% CO2. Lung cancer epithelial cells A-549 were propagated in Epilife Medium (Gibco, Life Technologies; MEPICF) and combined with CaCl2 and 1x-growth-supplement containing penicillin and streptomycin (Gibco, Life Technologies). For sub-culturing, cells were split at a ratio of 1:4 to 1:8. For cryopreservation, cells were frozen in 10% DMSO in liquid nitrogen.
(§3) Human cytotoxicity assay: Human hepatocytes or human lung carcinoma cells were seeded into sterile black clear-bottomed polystyrene Corning® CellBind® 96-well plates (Munich, Germany) at a density of 20,000 cells/well after calculating cell numbers from trypsinized samples in a classical Neubauer Improved hemocytometer (VWR, Munich, Germany). The cells were grown for 24 h at 37 °C in a 5% CO2 atmosphere in Epilife medium (keratinocytes) or William′s E medium (hepatocytes). After a 24-h recovery period, media were removed from the wells by aspiration. The cells were then immediately exposed to the respective test compounds or reference antibiotics (prepared in advance in 100 µL of the same media) for 24 h 37 °C with 5% CO2. The concentration tested ranged from 0.1 µM to 500 µM (0.1 µM, 1 µM, 10 µM, 50 µM, 100 µM, 250 µM, and 500 µM) and was formulated as a 100× concentrated stock each, resulting in a final constant DMSO concentration of 1% per 100-µL sample volume. Test series were each performed in triplicate, and additionally included a vehicle reference (DMSO only) plus another internal control for evaluating overall assay performance. Additionally, cells were visually examined under a light microscope for any morphological abnormalities relative to the untreated cells. Subsequently, cell viability, as an indicator of potential cytotoxicity, was measured by applying the CellTiter-Glo® luminescent cell proliferation assay (G755A, Promega, Madison, WI, USA). This method permits the determination of the number of viable cells in culture based on quantitation of the ATP present, which denotes the presence of metabolically active cells. To this end, 100 µL (equal to the volume of culture medium) of the kit-provided CellTiter-Glo® reagent (reconstituted by transferring the thawed CellTiter-Glo® buffer to the lyophilized enzyme and substrate mixture) was directly added to each well with a repetitive dispensing pipette. The contents were then mixed for 2 min at room temperature on an orbital minishaker (IKA® MS3 digital, Staufen, Germany) at 450 rpm to induce efficient cell lysis, and then further incubated for 10 min at room temperature for stabilization of the resultant luminescent signal. […]

[2] = Visible solubility / precipitation of test compounds in cell-culture media; format: physicochemical; conditions: 50 µM; no conclusion on cytotoxicity possible
Description: Since the majority of test compound solutions with concentrations above 50 µM precipitated in cell-culture media, we performed cytotoxicity assays for healthy and cancer cells at 50 µM.

[3] = CellTiter-Glo luminescent cell viability (cytotoxicity) assay on hepatocytes; format: cell-based, human; conditions: human, Liver cells, hepatocytes (HepaRG), 24 h, vs DMSO vehicle
Description: as §1, §2, §3

COc1cccc(N2CCN(c3cc4oc(C)nc4cc3F)CC2)c1 [Compound 7i, 5-Fluoro-6-[4-(3-methoxy-phenyl)-piperazin-1-yl]-2-methyl-benzooxazole]
melting point: 124 to 125 °C
viability at 0.1 µM [1]: 105%
viability at 1 µM [1]: 102%
viability at 10 µM [1]: 88%
viability at 50 µM [1]: 76%
viability at 100 µM [1]: 75%
Precipitation in cell-culture media [2]: precipitation problem
viability at 24 h, 0.1 µM [3]: 100%
viability at 24 h, 1 µM [3]: 102%
viability at 24 h, 10 µM [3]: 91%

O=[N+]([O-])c1cc(F)c(N2CCN(c3ccccc3O)CC2)cc1O [Compound 6f, 4-Fluoro-5-[4-(2-hydroxy-phenyl)-piperazin-1-yl]-2-nitro-phenol]
melting point: 176 to 178 °C
viability at 0.1 µM [1]: 97%
viability at 1 µM [1]: 100%
viability at 10 µM [1]: 93%
viability at 50 µM [1]: 60%
viability at 100 µM [1]: 46%
viability at 24 h, 0.1 µM [3]: 105%
viability at 24 h, 1 µM [3]: 104%
viability at 24 h, 10 µM [3]: 110%
viability at 24 h, 50 µM [3]: 76%

COc1cccc(N2CCN(c3cc(O)c([N+](=O)[O-])cc3F)CC2)c1 [Compound 6i, 4-Fluoro-5-[4-(3-methoxy-phenyl)-piperazin-1-yl]-2-nitro-phenol]
melting point: 148 to 149 °C
viability at 0.1 µM [1]: 95%
viability at 1 µM [1]: 93%
viability at 10 µM [1]: 96%
viability at 50 µM [1]: 69%
Precipitation in cell-culture media [2]: precipitation problem
viability at 24 h, 0.1 µM [3]: 79%
viability at 24 h, 1 µM [3]: 95%
viability at 24 h, 10 µM [3]: 99%

O=[N+]([O-])c1cc(F)c(N2CCN(c3ccccc3)CC2)cc1O [Compound 6a, 4-Fluoro-2-nitro-5-(4-phenyl-piperazin-1-yl)-phenol]
melting point: 197 to 198 °C
Lung cancer cells killed [1]: ~ 40%
viability at 0.1 µM [1]: 97%
viability at 1 µM [1]: 104%
viability at 10 µM [1]: 64%
viability at 50 µM [1]: 61%
viability at 100 µM [1]: 58%
viability at 24 h, 0.1 µM [3]: 86%
viability at 24 h, 1 µM [3]: 97%
viability at 24 h, 10 µM [3]: 112%
viability at 24 h, 50 µM [3]: 90%
viability at 24 h, 100 µM [3]: 76%

O=[N+]([O-])c1cc(F)c(N2CCN(c3ccccc3F)CC2)cc1O [Compound 6g, 4-Fluoro-5-[4-(2-fluoro-phenyl)-piperazin-1-yl]-2-nitro-phenol]
melting point: 180 to 181 °C
Lung cancer cells killed [1]: ~ 40%
viability at 0.1 µM [1]: 96%
viability at 1 µM [1]: 96%
viability at 10 µM [1]: 62%
viability at 50 µM [1]: 51%
viability at 100 µM [1]: 42%
viability at 24 h, 0.1 µM [3]: 110%
viability at 24 h, 1 µM [3]: 109%
viability at 24 h, 10 µM [3]: 112%
viability at 24 h, 50 µM [3]: 87%

O=[N+]([O-])c1cc(F)c(N2CCN(c3ccc(O)cc3)CC2)cc1O [Compound 6c, 4-Fluoro-5-[4-(4-hydroxy-phenyl)-piperazin-1-yl]-2-nitro-phenol]
melting point: 218 to 219 °C
viability at 0.1 µM [1]: 104%
viability at 1 µM [1]: 103%
viability at 10 µM [1]: 102%
viability at 50 µM [1]: 94%
viability at 24 h, 0.1 µM [3]: 95%
viability at 24 h, 1 µM [3]: 101%
viability at 24 h, 10 µM [3]: 110%
viability at 24 h, 50 µM [3]: 101%
viability at 24 h, 100 µM [3]: 89%

Cc1ccc(N2CCN(c3cc(O)c([N+](=O)[O-])cc3F)CC2)cc1 [Compound 6b, 4-Fluoro-2-nitro-5-(4-p-tolyl-piperazin-1-yl)-phenol]
melting point: 178 to 179 °C
viability at 0.1 µM [1]: 99%
viability at 1 µM [1]: 100%
viability at 10 µM [1]: 68%
viability at 50 µM [1]: 65%
viability at 24 h, 0.1 µM [3]: 107%
viability at 24 h, 1 µM [3]: 123%
viability at 24 h, 10 µM [3]: 120%
viability at 24 h, 50 µM [3]: 97%
viability at 24 h, 100 µM [3]: 96%

Cc1nc2cc(F)c(N3CCN(c4ccc(O)cc4)CC3)cc2o1 [Compound 7c, 4-[4-(5-Fluoro-2-methyl-benzooxazol-6-yl)-piperazin-1-yl]-phenol]
melting point: 188 to 191 °C
viability at 0.1 µM [1]: 92%
viability at 1 µM [1]: 97%
viability at 10 µM [1]: 101%
viability at 50 µM [1]: 90%
viability at 100 µM [1]: 83%
viability at 24 h, 0.1 µM [3]: 98%
viability at 24 h, 1 µM [3]: 107%
viability at 24 h, 10 µM [3]: 101%
viability at 24 h, 50 µM [3]: 93%

COc1ccc(N2CCN(c3cc4oc(C)nc4cc3F)CC2)cc1 [Compound 7e, 5-Fluoro-6-[4-(4-methoxy-phenyl)-piperazin-1-yl]-2-methyl-benzooxazole]
melting point: 156 to 157 °C
viability at 0.1 µM [1]: 93%
viability at 1 µM [1]: 92%
viability at 10 µM [1]: 75%
viability at 50 µM [1]: 74%
viability at 100 µM [1]: 68%
viability at 24 h, 0.1 µM [3]: 107%
viability at 24 h, 1 µM [3]: 108%
viability at 24 h, 10 µM [3]: 91%
viability at 24 h, 50 µM [3]: 71%

COc1ccc(N2CCN(c3cc(O)c([N+](=O)[O-])cc3F)CC2)cc1 [Compound 6e, 4-Fluoro-5-[4-(4-methoxy-phenyl)-piperazin-1-yl]-2-nitro-phenol]
melting point: 202 to 204 °C
viability at 0.1 µM [1]: 101%
viability at 1 µM [1]: 104%
viability at 10 µM [1]: 96%
viability at 50 µM [1]: 71%
viability at 24 h, 0.1 µM [3]: 107%
viability at 24 h, 1 µM [3]: 110%
viability at 24 h, 10 µM [3]: 104%
viability at 24 h, 50 µM [3]: 74%
viability at 24 h, 100 µM [3]: 79%

O=[N+]([O-])c1cc(F)c(N2CCN(c3cccc(O)c3)CC2)cc1O [Compound 6h, 4-Fluoro-5-[4-(3-hydroxy-phenyl)-piperazin-1-yl]-2-nitro-phenol]
melting point: 207 to 208 °C
viability at 0.1 µM [1]: 106%
viability at 1 µM [1]: 106%
viability at 10 µM [1]: 105%
viability at 50 µM [1]: 87%
viability at 24 h, 0.1 µM [3]: 117%
viability at 24 h, 1 µM [3]: 109%
viability at 24 h, 10 µM [3]: 108%
viability at 24 h, 50 µM [3]: 83%
viability at 24 h, 100 µM [3]: 58%

Cc1nc2cc(F)c(N3CCN(c4ccccc4)CC3)cc2o1 [Compound 7a, 5-Fluoro-2-methyl-6-(4-phenylpiperazin-1-yl)-benzo[d]oxazole]
melting point: 153 to 154 °C
viability at 0.1 µM [1]: 101%
viability at 1 µM [1]: 96%
viability at 10 µM [1]: 90%
viability at 50 µM [1]: 60%
Precipitation in cell-culture media [2]: precipitation problem
viability at 24 h, 0.1 µM [3]: 101%
viability at 24 h, 1 µM [3]: 97%
viability at 24 h, 10 µM [3]: 94%

O=[N+]([O-])c1cc(F)c(N2CCN(c3ccc(Cl)c(Cl)c3)CC2)cc1O [Compound 6j, 5-[4-(3,4-Dichloro-phenyl)-piperazin-1-yl]-4-fluoro-2-nitro-phenol]
melting point: 211 to 213 °C
viability at 0.1 µM [1]: 98%
viability at 1 µM [1]: 94%
viability at 10 µM [1]: 65%
viability at 50 µM [1]: 62%
viability at 24 h, 0.1 µM [3]: 119%
viability at 24 h, 1 µM [3]: 115%
viability at 24 h, 10 µM [3]: 81%
viability at 24 h, 50 µM [3]: 102%
viability at 24 h, 100 µM [3]: 108%

O=[N+]([O-])c1cc(F)c(Cl)cc1O
melting point: 82 to 83 °C
